Where a name gives a salt, the structure may show the parent alone. A value given as a limit tells only on which side of the number the result lay.

T1 sequence (P12931 whole entry, change not shown, the tested form may be a part): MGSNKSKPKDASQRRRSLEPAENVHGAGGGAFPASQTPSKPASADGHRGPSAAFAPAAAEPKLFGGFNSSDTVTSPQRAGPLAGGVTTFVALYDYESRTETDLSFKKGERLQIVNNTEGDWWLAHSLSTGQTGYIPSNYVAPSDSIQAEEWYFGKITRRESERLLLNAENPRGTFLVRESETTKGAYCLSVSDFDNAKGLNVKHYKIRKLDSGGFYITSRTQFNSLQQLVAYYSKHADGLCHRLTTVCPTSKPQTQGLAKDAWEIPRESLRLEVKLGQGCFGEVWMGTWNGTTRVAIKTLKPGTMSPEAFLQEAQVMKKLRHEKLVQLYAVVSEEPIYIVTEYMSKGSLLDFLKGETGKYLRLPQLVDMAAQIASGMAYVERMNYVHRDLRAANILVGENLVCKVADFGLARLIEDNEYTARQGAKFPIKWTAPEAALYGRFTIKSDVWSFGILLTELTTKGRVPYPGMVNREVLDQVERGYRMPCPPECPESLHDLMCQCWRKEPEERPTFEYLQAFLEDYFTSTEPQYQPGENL

One series has as its target T1, Rat2 fibroblasts transformed with v-Src/Hu c-Src fusion gene (Homo sapiens, UniProt P12931, cells depend on it, form not given).
T1 construct: fused on or other part: The v-Src frame of Rous sarcoma virus: everything outside the catalytic domain, namely the N-terminal unique/SH3/SH2 part; Candidates are Prague C (P00526), then Schmidt-Ruppin A (P00524)
In words: Anchorage independent Src-transformed fibroblast proliferation test procedure. The series is classed as cell-based, rat. The settings on record: rat2 fibroblasts transformed with v-src/hu c-src fusion gene; read-out: Src TF prolif IC50. From the text:
Anchorage Independent Src-transformed Fibroblast Proliferation Test Procedure: Rat2 fibroblasts stably transformed with a plasmid containing CMV promotor controlled v-Src/Hu c-Src fusion gene in which the catalytic domain of human c-Src is inserted in place of the v-Src catalytic domain in the v-Src gene are used for the measurement of src dependent suspension growth.
On to `COc1cc(Nc2c(C#N)cnc3cc4cc(OC)c(OCCN5CCOCC5)cc4cc23)c(Cl)cc1F` [Example 209, 4-(2-Chloro-4-fluoro-5-methoxyanilino)-8-methoxy-7-[2-(4-morpholinyl)ethoxy]benzo[g]quinoline-3-carbonitrile], for which the GI50 turned out to be 309 nM. On the same count and under the same terms, for `COc1cc(Nc2c(C#N)cnc3cc4cc(OCCN5CCOCC5)c(OC)cc4cc23)c(Cl)cc1Cl` [Example 129, 4-(2,4-dichloro-5-methoxyanilino)-7-methoxy-8-[2-(4-morpholinyl)ethoxy]benzo[g]quinoline-3-carbonitrile] the value was 15 nM. Consider `COc1cc(Nc2c(C#N)cnc3cc4cc(OCCn5nccn5)c(OC)cc4cc23)c(Cl)cc1Cl` [Example 158, 4-(2,4-Dichloro-5-methoxyphenylamino)-7-methoxy-8-(2-[1,2,3]triazol-2-yl-ethoxy)benzo[g]quinoline-3-carbonitrile], for which the GI50 is 67 nM.

System in a further series: not given
Test: not given
Conditions: not given
A word on the melting point: it is the temperature, or range, at which the solid turns liquid. `COc1cc(Nc2c(C#N)cnc3cc4cc(OC)c(OCCN5CCOCC5)cc4cc23)c(Cl)cc1F` [Example 209, 4-(2-Chloro-4-fluoro-5-methoxyanilino)-8-methoxy-7-[2-(4-morpholinyl)ethoxy]benzo[g]quinoline-3-carbonitrile] returned a melting point of 204 to 214 °C. For `Cc1ccc(Nc2c(C#N)cnc3c2oc2ccccc23)cc1O` [Example 87, 4-(3-Hydroxy-4-methylphenylamino)benzo[4,5]furo[3,2-b]pyridine-3-carbonitrile], the melting point was 240 °C (dec.). Consider `Cc1ccc(Nc2c(C#N)cnc3c2sc2ccccc23)cc1O` [Example 70, 4-(3-Hydroxy-4-methylphenylamino)benzo[4,5]thieno[3,2-b]pyridine-3-carbonitrile], for which the melting point is 260 °C (dec.). In the case of `N#Cc1cnc2c(oc3ccccc32)c1Nc1cccc(Br)c1` [Example 85, 4-(3-Bromophenylamino)benzo[4,5]furo[3,2-b]pyridine-3-carbonitrile], the melting point fell in the range of 242 to 245 °C. `N#Cc1cnc2cc3cc(O)c(O)cc3cc2c1Nc1ccc(Cl)cc1Cl` [Example 15, 4-(2,4-Dichloroanilino)-7,8-dihydroxybenzo[g]quinoline-3-carbonitrile] displayed a melting point of over 260 °C. In turn, `N#Cc1cnc2c(oc3ccccc32)c1Oc1ccc(Cl)cc1F` [Example 89, 4-(4-Chloro-2-fluorophenoxy)-benzo[4,5]furo[3,2-b]pyridine-3-carbonitrile] displayed a melting point of 138 to 140 °C. In turn, `COc1cc2cc3c(Nc4ccc(Sc5nccn5C)c(Cl)c4)c(C#N)cnc3cc2cc1OCCN1CCOCC1` [Example 149] gave a melting point of over 300 °C. On to `COc1cc2cc3ncc(C#N)c(Nc4ccc(Cl)cc4Cl)c3cc2cc1OCCN1CCOCC1`, for which the melting point is 115 to 119 °C (dec.). On the same count and under the same terms, the same measure for `N#Cc1cnc2cc3ccccc3cc2c1Nc1ccc(F)c(Cl)c1` [Example 4, 4-(3-Chloro-4-fluoroanilino)benzo[g]quinoline-3-carbonitrile]: 257 to 259 °C. Same read-out and setting: the same measure for `COc1cc(Nc2c(C#N)cnc3c2sc2ccc(N)cc23)c(C)cc1Cl` [Example 76, 8-Amino-4-(4-chloro-5-methoxy-2-methylanilino)[1]benzothieno[3,2-b]pyridine-3-carbonitrile]: 266 to 268 °C (dec.); for `COc1cc(Nc2c(C#N)cnc3c2sc2ccccc23)c(Cl)cc1Cl` [Example 68, 4-(2,4-Dichloro-5-methoxyphenylamino)benzo[4,5]thieno[3,2-b]pyridine-3-carbonitrile]: 234 to 236 °C. Same read-out and setting: the same measure for `COc1cc(Nc2c(C#N)cnc3cc4cc(OC)c(OC)cc4cc23)c(C)cc1Cl`: 171 to 173 °C. With `C=CC(=O)Nc1ccc2sc3c(Nc4cccc(Br)c4)c(C#N)cnc3c2c1` [Example 93, N-[4-(3-Bromoanilino)-3-cyano[1]benzothieno[3,2-b]pyridin-8-yl]acrylamide], the melting point is > 300 °C (dec.). On the same count and under the same terms, the same measure for `COc1cc(Nc2c(C#N)cnc3cc4cc(OCCN5CCC(O)CC5)c(OC)cc4cc23)c(Cl)cc1Cl`: 193 to 198 °C.

On to `COc1cc(Nc2c(C#N)cnc3nc4cc(OCCN5CCN(C)CC5)c(OC)cc4cc23)c(Cl)cc1Cl` [Example 175, 4-(2,4-Dichloro-5-methoxyanilino)-7-methoxy-8-[2-(4-methyl-1-piperazinyl)ethoxy]benzo[b][1,8]naphthyridine-3-carbonitrile], for which the melting point is 240 to 243 °C (dec.).

With `COc1cc2cc3c(Nc4ccc(F)c(Cl)c4)c(C#N)cnc3cc2cc1OCCN1CCOCC1` [Example 205, 4-(3-Chloro-4-fluoroanilino)-7-methoxy-8-[2-(4-morpholinyl)ethoxy]benzo[g]quinoline-3-carbonitrile], the melting point fell in the range of 237 to 242 °C. In turn, `C=CC(=O)Nc1cccc2c1sc1c(Nc3cccc(Br)c3)c(C#N)cnc12` [Example 94, N-[4-(3-Bromoanilino)-3-cyano[1]benzothieno[3,2-b]pyridin-6-yl]acrylamide] came in with a melting point of 286 to 287 °C. With `COc1cc2cc3ncc(C#N)c(Nc4ccc(F)c(Cl)c4)c3cc2cc1OC` (as salt: salt) [Example 13, 4-(3-Chloro-4-fluoroanilino)-7,8-dimethoxybenzo[g]quinoline-3-carbonitrile], the melting point is over 280 °C.

Take `COc1cc(Nc2c(C#N)cnc3cc4cc(OCCN5CCOCC5)c(OC)cc4cc23)c(Cl)cc1F`: the melting point was in the range of 206 to 222 °C. Still for that read-out and setting: for `COc1cc(Nc2c(C#N)cnc3c2C=C2N=C(CN4CCOCC4)N=C2C3)cc(OC)c1OC` [Example 48, 2-(4-Morpholinylmethyl)-8-(3,4,5-trimethoxyanilino)imidazo[4,5-g]quinoline-7-carbonitrile] the value was 258 to 260 °C (dec.); for `COc1cc(Nc2c(C#N)cnc3cc4cc(OC)c(OCCN5CCC(O)CC5)cc4cc23)c(Cl)cc1Cl`, 150 to 160 °C; for `COc1ccc2cc3ncc(C#N)c(Nc4ccc(Cl)cc4Cl)c3cc2c1` [Example 103, 4-(2,4-Dichloroanilino)-7-methoxybenzo[g]quinoline-3-carbonitrile], 215 to 217 °C. Regarding `N#Cc1cnc2c(oc3ccccc32)c1Nc1ccc(Cl)cc1F` [Example 86, 4-(4-Chloro-2-fluorophenylamino)benzo[4,5]furo[3,2-b]pyridine-3-carbonitrile], the melting point fell in the range of 259 to 261 °C. In turn, `COc1cc2cc3c(Nc4ccc(Oc5ccccc5)c(Cl)c4)c(C#N)cnc3cc2cc1OCCN1CCOCC1` [Example 213, 4-(3-Chloro-4-phenoxyphenylamino)-7-methoxy-8-(2-morpholin-4-yl-ethoxy)benzo[g]quinoline-3-carbonitrile] registered a melting point of 190 to 194 °C. Still for that read-out and setting: the same measure for `N#Cc1cnc2c(c1Nc1cccc(Br)c1)C=C1N=CN=C1C2` [Example 37, 8-(3-Bromo-phenylamino)imidazo[4,5-g]quinoline-7-carbonitrile]: 286 to 288 °C. The same measure, in the same setting: for `Cc1ccc(Nc2c(C#N)cnc3c2C=C2N=CN=C2C3)cc1O` [Example 41, 8-(3-Hydroxy-4-methylphenylamino)imidazo[4,5-g]quinoline-7-carbonitrile] the value was 257 to 260 °C (dec.); for `COc1cc2cc3c(Nc4cc(OC)c(Cl)cc4Cl)c(C#N)cnc3cc2cc1O` [Example 155, 4-(2,4-Dichloro-5-methoxyphenylamino)-8-hydroxy-7-methoxybenzo[g]quinoline-3-carbonitrile], 238 to 240 °C. Still for that read-out and setting: for `COc1cc2cc3c(Nc4ccc(Sc5nccn5C)c(Cl)c4)c(C#N)cnc3cc2cc1OCCCN1CCOCC1` [Example 151, 4-[3-Chloro-4-(1-methyl-1H-imidazol-2-ylsulfanyl)phenylamino]-7-methoxy-8-(3-morpholin-4-yl-propoxy)benzo[g]quinoline-3-carbonitrile] the value was 230 to 235 °C; for `COc1cc(Nc2c(C#N)cnc3cc4cc(OCCN5CCC(O)CC5)c(OC)cc4cc23)c(Cl)cc1C`, 210 to 215 °C. Compound `N#Cc1cnc2cc3c(cc2c1Nc1ccc(Oc2ccccc2)cc1)ncn3CCN1CCOCC1` [Example 58, 3-[2-(4-Morpholinyl)ethyl]-8-(4-phenoxyanilino)-3H-imidazo[4,5-g]quinoline-7-carbonitrile] came in with a melting point of over 260 °C.

Consider `COc1cc2cc3c(Nc4cc(OC)c(OC)c(OC)c4)c(C#N)cnc3nc2cc1OC` [Example 178, 7,8-Dimethoxy-4-(3,4,5-trimethoxyanilino)benzo[b][1,8]naphthyridine-3-carbonitrile], for which the melting point was 250 to 252 °C (dec.).

Consider `N#Cc1cnc2c(sc3ccccc32)c1Nc1cccc(Br)c1` [Example 65, 4-(3-Bromophenylamino)benzo[4,5]thieno[3,2-b]pyridine-3-carbonitrile], for which the melting point was in the range of 240 to 242 °C. Still for that read-out and setting: for `COc1cc2cc3ncc(C#N)c(Nc4ccc(Oc5ccccc5)cc4)c3cc2cc1OC` (as salt: salt) [Example 11, 7,8-Dimethoxy-4-(4-phenoxyanilino)benzo[g]quinoline-3-carbonitrile] the value was over 265 °C. Same read-out and setting: for `COc1cc(Nc2c(C#N)cnc3cc4cc(OCc5ccccc5)c(OC)cc4cc23)c(Cl)cc1F` [Example 219, 8-(Benzyloxy)-4-[(2-chloro-4-fluoro-5-methoxyphenyl)amino]-7-methoxybenzo[g]quinoline-3-carbonitrile] the value was 248 to 250 °C (dec.). In the case of `N#Cc1cnc2c(sc3ccccc32)c1Nc1ccc(Cl)cc1F` [Example 66, 4-(4-Chloro-2-fluorophenylamino)benzo[4,5]thieno[3,2-b]pyridine-3-carbonitrile], the melting point was in the range of 250 to 251 °C. On the same count and under the same terms, for `COc1cc(Nc2c(C#N)cnc3cc4cc(OCCCl)c(OC)cc4cc23)c(Cl)cc1Cl` [Example 126, 4-(2,4-dichloro-5-methoxyanilino)-7-methoxy-8-(chloroethoxy)benzo[g]quinoline-3-carbonitrile] the value was 239 to 255 °C (dec.).

The values are drawn from patent US7105531B2, “Tricyclic protein kinase inhibitors” (WYETH, priority 1999, dated 2006).
